Measured values from ChEMBL document CHEMBL1201862, “PubChem BioAssay data set” (2004).
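Five compound concentrations were applied to cells in 96-well plates for 48 hours; endpoints were derived by simple linear interpolation of the resulting dose-response curve. GI50 = concentration required for 50% inhibition of growth.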 Active and inactive are the calls of the source. Rule as the data show it: active = GI50 up to about 1.1 µM and inactive = higher.

Columns and labels:
Test in all cases: DTP human tumour cell line panel, 48 h
KM12 = tested on: KM12
SNB-19 = tested on: SNB-19
PC-3 = tested on: PC-3
SK-OV-3 = tested on: SK-OV-3
COLO 205 = tested on: COLO 205
TK-10 = tested on: TK-10
SR = tested on: SR
M14 = tested on: M14
SK-MEL-2 = tested on: SK-MEL-2
BT-549 = tested on: BT-549
NCI-H460 = tested on: NCI-H460
NCI/ADR-RES = tested on: NCI/ADR-RES
786-0 = tested on: 786-0
HCT-15 = tested on: HCT-15
SF-295 = tested on: SF-295
SK-MEL-5 = tested on: SK-MEL-5
DU-145 = tested on: DU-145
Hs-578T = tested on: Hs-578T
OVCAR-8 = tested on: OVCAR-8
NCI-H226 = tested on: NCI-H226

Compound: O=C(/C=C/c1ccc2c(c1)OCO2)Cc1nc2ncccc2[nH]c1=O
- GI50 (KM12): 61.1 µM (inactive)
- GI50 (SNB-19): 63.8 µM (inactive)
- GI50 (PC-3): > 100 µM (inactive)
- GI50 (SK-OV-3): 98.9 µM (inactive)
- GI50 (COLO 205): 70.3 µM (inactive)
- GI50 (TK-10): 42.8 µM (inactive)
- GI50 (SR): 77.1 µM (inactive)
- GI50 (M14): > 100 µM (inactive)
- GI50 (SK-MEL-2): > 100 µM (inactive)
- GI50 (BT-549): > 100 µM (inactive)
- GI50 (NCI-H460): > 100 µM (inactive)
- GI50 (NCI/ADR-RES): > 100 µM (inactive)
- GI50 (786-0): 75.3 µM (inactive)
- GI50 (HCT-15): 92.7 µM
- GI50 (SF-295): 69.3 µM (inactive)
- GI50 (SK-MEL-5): > 100 µM (inactive)
- GI50 (DU-145): > 100 µM (inactive)
- GI50 (Hs-578T): 36.5 µM (inactive)
- GI50 (OVCAR-8): 59.8 µM (inactive)

Compound: CCCCC(C(=O)N/N=C/c1ccc([N+](=O)[O-])o1)C(=O)N/N=C/c1ccc([N+](=O)[O-])o1
- GI50 (KM12): 3.66 µM (inactive)
- GI50 (SNB-19): 3.64 µM (inactive)
- GI50 (NCI-H226): 2.37 µM (inactive)
- GI50 (PC-3): 2.81 µM (inactive)
- GI50 (SK-OV-3): 21.1 µM (inactive)
- GI50 (COLO 205): 4.28 µM (inactive)
- GI50 (TK-10): 2.28 µM (inactive)
- GI50 (M14): 3.81 µM (inactive)
- GI50 (SK-MEL-2): 7.19 µM (inactive)
- GI50 (BT-549): 5.61 µM (inactive)
- GI50 (NCI-H460): 15.1 µM (inactive)
- GI50 (NCI/ADR-RES): 2.64 µM (inactive)
- GI50 (786-0): 2.11 µM (inactive)
- GI50 (HCT-15): 2.26 µM
- GI50 (SF-295): 15.7 µM (inactive)
- GI50 (SK-MEL-5): 3.37 µM (inactive)
- GI50 (DU-145): 5.37 µM (inactive)
- GI50 (Hs-578T): 2.4 µM (inactive)
- GI50 (OVCAR-8): 2.05 µM (inactive)

Compound: Cc1ccc(C)n1-c1ccccc1C1SCCCS1
- GI50 (KM12): > 100 µM (inactive)
- GI50 (SNB-19): > 100 µM (inactive)
- GI50 (NCI-H226): > 100 µM (inactive)
- GI50 (PC-3): > 100 µM (inactive)
- GI50 (SK-OV-3): > 100 µM (inactive)
- GI50 (COLO 205): > 100 µM (inactive)
- GI50 (TK-10): > 100 µM (inactive)
- GI50 (M14): 57.1 µM (inactive)
- GI50 (SK-MEL-2): > 100 µM (inactive)
- GI50 (BT-549): > 100 µM (inactive)
- GI50 (NCI-H460): > 100 µM (inactive)
- GI50 (NCI/ADR-RES): > 100 µM (inactive)
- GI50 (786-0): > 100 µM (inactive)
- GI50 (HCT-15): > 100 µM
- GI50 (SF-295): 54.1 µM (inactive)
- GI50 (SK-MEL-5): > 100 µM (inactive)
- GI50 (DU-145): > 100 µM (inactive)
- GI50 (Hs-578T): > 100 µM (inactive)
- GI50 (OVCAR-8): > 100 µM (inactive)

Compound: CCOC(=O)C1C(c2ccc(OC)cc2)c2c(n[nH]c2O)CC1(C)O (centres undefined)
- GI50 (KM12): > 100 µM (inactive)
- GI50 (SNB-19): > 100 µM (inactive)
- GI50 (PC-3): > 100 µM (inactive)
- GI50 (COLO 205): > 100 µM (inactive)
- GI50 (TK-10): > 100 µM (inactive)
- GI50 (SR): > 100 µM (inactive)
- GI50 (M14): > 100 µM (inactive)
- GI50 (SK-MEL-2): > 100 µM (inactive)
- GI50 (BT-549): > 100 µM (inactive)
- GI50 (NCI-H460): > 100 µM (inactive)
- GI50 (NCI/ADR-RES): > 100 µM (inactive)
- GI50 (786-0): > 100 µM (inactive)
- GI50 (HCT-15): > 100 µM
- GI50 (SF-295): 45.1 µM (inactive)
- GI50 (SK-MEL-5): > 100 µM (inactive)
- GI50 (DU-145): > 100 µM (inactive)
- GI50 (Hs-578T): > 100 µM (inactive)
- GI50 (OVCAR-8): > 100 µM (inactive)

Compound: O=C(OCc1ccccc1CN1CCOCC1)c1ccc(Br)cc1
- GI50 (SNB-19): > 100 µM (inactive)
- GI50 (NCI-H226): > 100 µM (inactive)
- GI50 (PC-3): 85.5 µM (inactive)
- GI50 (SK-OV-3): > 100 µM (inactive)
- GI50 (COLO 205): 74.6 µM (inactive)
- GI50 (TK-10): > 100 µM (inactive)
- GI50 (M14): 52.8 µM (inactive)
- GI50 (SK-MEL-2): 36 µM (inactive)
- GI50 (BT-549): 74.8 µM (inactive)
- GI50 (NCI-H460): > 100 µM (inactive)
- GI50 (NCI/ADR-RES): 42 µM (inactive)
- GI50 (786-0): > 100 µM (inactive)
- GI50 (HCT-15): 57.1 µM
- GI50 (SK-MEL-5): 12.2 µM (inactive)
- GI50 (DU-145): > 100 µM (inactive)
- GI50 (Hs-578T): 69.3 µM (inactive)
- GI50 (OVCAR-8): 85.1 µM (inactive)

Compound: C/C=C/CC(C(=O)OCC)(N(C)C(=O)OC(C)(C)C)S(=O)(=O)c1ccc(C)cc1 (centres undefined)
- GI50 (KM12): 48.2 µM (inactive)
- GI50 (SNB-19): > 100 µM (inactive)
- GI50 (NCI-H226): > 100 µM (inactive)
- GI50 (PC-3): 71.8 µM (inactive)
- GI50 (COLO 205): 68.1 µM (inactive)
- GI50 (TK-10): > 100 µM (inactive)
- GI50 (M14): 50.6 µM (inactive)
- GI50 (SK-MEL-2): 51.6 µM (inactive)
- GI50 (BT-549): > 100 µM (inactive)
- GI50 (NCI/ADR-RES): 69.2 µM (inactive)
- GI50 (786-0): > 100 µM (inactive)
- GI50 (HCT-15): 61.9 µM
- GI50 (SF-295): 63.7 µM (inactive)
- GI50 (SK-MEL-5): 88.7 µM (inactive)
- GI50 (DU-145): > 100 µM (inactive)
- GI50 (Hs-578T): > 100 µM (inactive)
- GI50 (OVCAR-8): > 100 µM (inactive)
